Laboratory results reported in ChEMBL document CHEMBL1144507, “Synthesis and antifungal activity of (Z)-5-arylidenerhodanines” (2007).

Tests used:
Trichophyton benhamiae [1] = test: Antifungal activity against Trichophyton mentagrophytes C364 after 48 hrs; assay type: functional, Arthroderma benhamiae
Candida albicans [2] = test: Antifungal activity against Candida albicans C129-2000 after 48 hrs; assay type: functional
Candida albicans [3] = test: Antifungal activity against Candida albicans C126-2000 after 48 hrs; assay type: functional
Saccharomyces cerevisiae = test: Antifungal activity against Saccharomyces cerevisiae ATCC 9763 after 48 hrs; assay type: functional; conditions: ATCC 9763, 48 h
Cryptococcus neoformans [4] = test: Antifungal activity against […] IM 052470 after 48 hrs; assay type: functional
Cryptococcus neoformans [5] = test: Antifungal activity against Candida neoformans IM 983040 after 48 hrs; assay type: functional
Cryptococcus neoformans [6] = test: Antifungal activity against […] IM 00319 after 48 hrs; assay type: functional
Trichophyton benhamiae [7] = test: Antifungal activity against Trichophyton mentagrophytes C738 after 48 hrs; assay type: functional, Arthroderma benhamiae
Candida albicans [8] = test: Antifungal activity against Candida albicans ATCC 10231 after 48 hrs; assay type: functional; conditions: ATCC 10231, 48 h
Cryptococcus neoformans [9] = test: Antifungal activity against […] IM 972751 after 48 hrs; assay type: functional
Nakaseomyces glabratus = test: Antifungal activity against Candida glabrata C115-2000 after 48 hrs; assay type: functional
Cryptococcus neoformans [10] = test: Antifungal activity against […] IM 031631 after 48 hrs; assay type: functional; conditions: Cryptococcus neoformans, 48 h
Trichophyton benhamiae [11] = test: Antifungal activity against Trichophyton mentagrophytes ATCC 9972 after 48 hrs; assay type: functional, Arthroderma benhamiae; conditions: ATCC 9972, 48 h
Candida tropicalis = test: Antifungal activity against Candida tropicalis C131-1997 after 48 hrs; assay type: functional
Cryptococcus neoformans [12] = test: Antifungal activity against […] IM 031706 after 48 hrs; assay type: functional
Candida parapsilosis = test: Antifungal activity against Candida parapsilosis C124-2000 after 48 hrs; assay type: functional; conditions: Lodderomyces parapsilosis
Candida albicans [13] = test: Antifungal activity against Candida albicans C127-2000 after 48 hrs; assay type: functional
Aspergillus flavus = test: Antifungal activity against Aspergillus flavus ATCC 9170 after 48 hrs; assay type: functional; conditions: ATCC 9170, 48 h
Cryptococcus neoformans [14] = test: Antifungal activity against […] IM 972724 after 48 hrs; assay type: functional
Nannizzia gypsea = test: Antifungal activity against Microsporum gypseum C115 after 48 hrs; assay type: functional
Pichia kudriavzevii = test: Antifungal activity against Candida krusei C117-2000 after 48 hrs; assay type: functional
Aspergillus niger = test: Antifungal activity against Aspergillus niger ATCC 9029 after 48 hrs; assay type: functional; conditions: ATCC 9029, 48 h
Kluyveromyces marxianus = test: Antifungal activity against Candida kefyr C123-2000 after 48 hrs; assay type: functional
Trichophyton benhamiae [15] = test: Antifungal activity against Trichophyton mentagrophytes C539 after 48 hrs; assay type: functional, Arthroderma benhamiae
Cryptococcus neoformans [16] = test: Antifungal activity against […] IM 983036 after 48 hrs; assay type: functional
Cryptococcus neoformans [17] = test: Antifungal activity against […] IM 961951 after 48 hrs; assay type: functional
Trichophyton benhamiae [18] = test: Antifungal activity against Trichophyton mentagrophytes C108 after 48 hrs; assay type: functional, Arthroderma benhamiae
Candida albicans [19] = test: Antifungal activity against Candida albicans C130-2000 after 48 hrs; assay type: functional
Trichophyton benhamiae [20] = test: Antifungal activity against Trichophyton mentagrophytes C943 after 48 hrs; assay type: functional, Arthroderma benhamiae
Trichophyton rubrum = test: Antifungal activity against Trichophyton rubrum C113 after 48 hrs; assay type: functional
Cryptococcus neoformans [21] = test: Antifungal activity against […] ATCC 32264 after 48 hrs; assay type: functional; conditions: ATCC 32264, 48 h
Cryptococcus neoformans [22] = test: Antifungal activity against […] IM 042074 after 48 hrs; assay type: functional
Candida albicans [23] = test: Antifungal activity against Candida albicans C125-2000 after 48 hrs; assay type: functional
Clavispora lusitaniae = test: Antifungal activity against Candida lusitaniae C131-2000 after 48 hrs; assay type: functional
Aspergillus fumigatus = test: Antifungal activity against Aspergillus fumigatus ATCC 26934 after 48 hrs; assay type: functional; conditions: ATCC 26934, 48 h
Torulaspora delbrueckii = test: Antifungal activity against Candida coliculosa C122-2000 after 48 hrs; assay type: functional
Candida albicans [24] = test: Antifungal activity against Candida albicans C128-2000 after 48 hrs; assay type: functional
Cryptococcus neoformans [25] = test: Antifungal activity against Cryptococcus neoformans ATCC 32264 after 48 hrs; assay type: functional; conditions: ATCC 32264, 48 h

O=C1NC(=S)S/C1=C\c1ccc(C(F)(F)F)cc1
3.9 µg/mL: MIC50 (Cryptococcus neoformans [6]) | MIC80 (Cryptococcus neoformans [6]) | MIC80 (Cryptococcus neoformans [9]) | MIC (Nakaseomyces glabratus) | MIC50 (Nakaseomyces glabratus) | MIC80 (Nakaseomyces glabratus) | MIC50 (Cryptococcus neoformans [10]) | MIC (Trichophyton benhamiae [11]) | MIC50 (Candida parapsilosis) | MIC50 (Kluyveromyces marxianus) | MIC80 (Cryptococcus neoformans [17]) | MIC (Cryptococcus neoformans [21]) | MIC50 (Cryptococcus neoformans [21]) | MIC80 (Cryptococcus neoformans [21]) | MIC (Cryptococcus neoformans [25])
0.97 µg/mL: MIC (Trichophyton benhamiae [1]) | MIC (Trichophyton benhamiae [20])
7.8 µg/mL: MIC (Cryptococcus neoformans [4]) | MIC80 (Cryptococcus neoformans [4]) | MIC (Cryptococcus neoformans [5]) | MIC80 (Cryptococcus neoformans [5]) | MFC (Cryptococcus neoformans [6]) | MIC (Cryptococcus neoformans [6]) | MFC (Cryptococcus neoformans [9]) | MIC (Cryptococcus neoformans [9]) | MIC (Cryptococcus neoformans [10]) | MIC80 (Cryptococcus neoformans [10]) | MIC50 (Candida tropicalis) | MIC (Cryptococcus neoformans [12]) | MIC50 (Cryptococcus neoformans [12]) | MIC80 (Cryptococcus neoformans [12]) | MIC50 (Candida albicans [13]) | MFC (Cryptococcus neoformans [14]) | MIC (Cryptococcus neoformans [14]) | MIC80 (Cryptococcus neoformans [14]) | MIC50 (Pichia kudriavzevii) | MIC (Kluyveromyces marxianus) | MIC80 (Kluyveromyces marxianus) | MFC (Cryptococcus neoformans [16]) | MIC (Cryptococcus neoformans [16]) | MIC80 (Cryptococcus neoformans [16]) | MFC (Cryptococcus neoformans [17]) | MIC (Cryptococcus neoformans [17]) | MIC50 (Candida albicans [19]) | MFC (Cryptococcus neoformans [21]) | MFC (Cryptococcus neoformans [22]) | MIC (Cryptococcus neoformans [22]) | MIC80 (Cryptococcus neoformans [22])
31.2 µg/mL: MFC (Candida albicans [2]) | MIC (Candida albicans [2]) | MIC80 (Candida albicans [2]) | MFC (Candida albicans [3]) | MFC (Candida tropicalis) | MFC (Cryptococcus neoformans [12]) | MIC (Candida parapsilosis) | MIC80 (Candida parapsilosis) | MFC (Candida albicans [13]) | MFC (Pichia kudriavzevii) | MIC (Candida albicans [23]) | MIC80 (Candida albicans [23]) | MIC (Clavispora lusitaniae) | MIC80 (Clavispora lusitaniae) | MIC (Torulaspora delbrueckii) | MIC80 (Torulaspora delbrueckii) | MFC (Candida albicans [24])
1.9 µg/mL: MIC50 (Cryptococcus neoformans [4]) | MIC50 (Cryptococcus neoformans [5]) | MIC50 (Cryptococcus neoformans [9]) | MIC50 (Cryptococcus neoformans [14]) | MIC50 (Cryptococcus neoformans [16]) | MIC50 (Cryptococcus neoformans [17]) | MIC50 (Cryptococcus neoformans [22])
62.5 µg/mL: MFC (Candida parapsilosis) | MIC (Aspergillus flavus) | MIC (Aspergillus niger) | MFC (Candida albicans [19]) | MFC (Candida albicans [23]) | MFC (Clavispora lusitaniae) | MFC (Torulaspora delbrueckii)
1.95 µg/mL: MIC (Trichophyton benhamiae [7]) | MIC (Trichophyton benhamiae [15]) | MIC (Trichophyton benhamiae [18])
15.6 µg/mL: MIC50 (Candida albicans [2]) | MIC (Candida albicans [3]) | MIC50 (Candida albicans [3]) | MIC80 (Candida albicans [3]) | MIC (Saccharomyces cerevisiae) | MFC (Cryptococcus neoformans [5]) | MIC (Candida albicans [8]) | MFC (Nakaseomyces glabratus) | MFC (Cryptococcus neoformans [10]; read-out: MFC) | MIC (Candida tropicalis) | MIC80 (Candida tropicalis) | MIC (Candida albicans [13]) | MIC80 (Candida albicans [13]) | MIC (Nannizzia gypsea) | MIC (Pichia kudriavzevii) | MIC80 (Pichia kudriavzevii) | MFC (Kluyveromyces marxianus) | MIC (Candida albicans [19]) | MIC80 (Candida albicans [19]) | MIC (Trichophyton rubrum) | MIC50 (Candida albicans [23]) | MIC50 (Clavispora lusitaniae) | MIC50 (Torulaspora delbrueckii) | MIC (Candida albicans [24]) | MIC50 (Candida albicans [24]) | MIC80 (Candida albicans [24])
125 µg/mL: MIC (Aspergillus fumigatus)
12.5 µg/mL: MFC (Cryptococcus neoformans [4])
